Data: paper PMC3938723, “Learning from Host-Defense Peptides: Cationic, Amphipathic Peptoids with Potent Anticancer Activity” (PLoS ONE, 2014)
Non-standard residues stand in square brackets, D forms with d. Residues, ends and D or L forms follow the SMILES beside them. Nspe = C[C@H](NCC(=O)O)c1ccccc1; Nlys = NCCCCNCC(=O)O

Legend:
[1] = test system: MRC-5 (fetal lung fibroblast); assay: MTS cell viability assay, MRC-5; type: cell-based; conditions: 72 h
Procedure: (§1) MCF-7, MCF-7/TxT50 and OVCAR-3 (available in ATCC) were kindly provided by Professor Branimir Sikic's lab at Stanford University, and were cultured in McCoy's 5A media (GIBCO) with 10% FBS and antibiotics. Primary dermal fibroblasts were gifts from Lifeline Cell Technology and were cultured <6 passages according to the protocol Lifeline provides. All the cells were cultured in cell incubators (Thermo Scientific) at 37°C with 5% CO2.
(§2) This assay is a colorimetric method for determining the number of viable cells in proliferation. Aliquots of 100 µl media containing 1×10^4 cells were distributed into each well of a 96-well plate (BD Falcon). The following day, when cell density reaches about ∼40% confluency, the cell media were removed and replaced with serial dilutions of peptoid stocks in culturing media. For peptoid dilutions, peptoid stocks were initially diluted in media at 100 µM and then diluted by half in series using a multichannel pipette, and maintained in 100 µl media for each concentration with triple repeats. After peptoid solutions were transferred onto cells in 96-well plates, cells were incubated at 37°C for certain time periods. Then 20 µl of the CellTiter 96 Aqueous Non-Radioactive cell proliferation assay (Promega) reagent which contains a tetrazolium compound, [3-(4,5-dimethylthiazol-2-yl)-5-(3-carboxymethoxyphenyl)-2-(4-sulfophenyl)-2H-tetrazolium, inner salt; MTS(a)], was added to each well and cells were further incubated for 2 h to metabolize. The absorbance of formazan products were measured at 490 nm in a microplate reader (Molecular Devices). Percentage of cell viability = (A -A testblank)/(A control -A blank)×100, where A is the absorbance of the test well and A control the average absorbance of wells with cells not treated with peptoids. A testblank (media, MTS, and diluted peptoids) and A blank (media and MTS) were background absorbances measured in the absence of cells.
(§3) The activity and selectivity of these peptoids against cancer cells were evaluated in vitro. Their cytotoxicity was tested in three cancer cell lines, MCF-7 (human breast cancer), LNCaP (human prostate cancer), and OVCAR-3 (human ovarian cancer). To estimate the selectivity of these peptoids in vitro, hemolytic activities of some peptoids were cited from previously published work (Table 2 **column), and the MRC-5 cell line (human fibroblasts derived from fetal lung tissues) and primary dermal fibroblasts were also tested as normal cell controls. Briefly, cells were treated with peptoids diluted in culturing media for certain time periods, and then cell viability was measured via MTS assays.

[2] = test system: MCF-7 cells; assay: LDH leakage assay (plasma membrane integrity); type: cell-based, human; conditions: 50 µM, LDH leakage caused by cell lysis solution as the 100% control, measured immediately after treatment
Procedure: This assay is used to measure the membrane integrity as a function of the amount of cytoplasmic LDH (lactic dehydrogenase) released into the medium. Experiments were carried out according to the protocol of the In Vitro Toxicology Assay Kit, Lactic Dehydrogenase (LDH) based (Sigma-Aldrich). Briefly, cells were plated as described before, and peptoids were diluted similarly but in culturing media without phenol red to reduce background signal. After peptoid treatments, media supernatant were collected and centrifuged to remove any cell debris, and analyzed for LDH activity in a 96-well plate using the kit, absorbance at 490 nm and 690 nm measured using a microplate reader. All the following absorbance difference = A 490nm –A 690nm. Percentage of LDH leakage = (A -A testblank)/(A lysis -A blank)×100, where A is the average absorbance difference of the test wells and A lysis the average absorbance difference of wells with cells treated with cell lysis solution provided by the kit for 45 min. A testblank (media, diluted peptoids and LDH measuring reagents) and A blank (media and LDH measuring reagents) were background absorbance differences measured in the absence of cells.
These anticancer peptoids exert fast killing in cancer cells and are not affected by the multidrug resistance. […] The LDH assay measures membrane damage by quantifying the leakage of the cytoplasmic enzyme LDH. […]

[3] = test system: OVCAR3 (ovarian cancer); assay: MTS cell viability assay, OVCAR3; type: cell-based; conditions: 72 h
Procedure: as §1, §2, §3

[4] = test system: MCF-7 (breast cancer); assay: MTS cell viability assay, MCF-7; type: cell-based; conditions: 72 h
Procedure: as §1, §2, §3

[5] = test system: MCF-7 cells; assay: Apoptotic DNA ladder assay; type: cell-based, human; conditions: 24 h treatment
[6] = test system: LNCaP (prostate cancer); assay: MTS cell viability assay, LNCaP; type: cell-based; conditions: 72 h
Procedure: as §2, §3

[7] = test system: human red blood cells; conditions: concentration causing 10% hemolysis of human red blood cells; cited from earlier work
From the text: Table 2 Peptoid Cytotoxicity in cancer cell lines and control cells. | column: HC10 (µM) ** || The chain length is believed to influence not only the activity but also modes of action of cationic, amphipathic peptides, [34]. […] Thus we limited the chain length of peptoids to 13 residues at most, and studied 1 9mer which has the same charge-to-length ratio (CTLR) as peptoid ...

## C[C@@H](c1ccccc1)N(CC(N)=O)C(=O)CN(C(=O)CN(CCCCN)C(=O)CN(C(=O)CN(C(=O)CN(CCCCN)C(=O)CN(C(=O)CN(C(=O)CN(CCCCN)C(=O)CN(C(=O)CN(C(=O)CNCCCCN)[C@@H](C)c1ccccc1)[C@@H](C)c1ccccc1)[C@@H](C)c1ccccc1)[C@@H](C)c1ccccc1)[C@@H](C)c1ccccc1)[C@@H](C)c1ccccc1)[C@@H](C)c1ccccc1 [Peptoid 1, H-(NLys-Nspe-Nspe)4-NH2] (H-[Nlys][Nspe][Nspe][Nlys][Nspe][Nspe][Nlys][Nspe][Nspe][Nlys][Nspe][Nspe]-NH2)
[1]
  LC50 MRC-5 (fetal lung fibroblast): 8 µM
[2]
  LDH (enzyme) leakage: ~50%
[3]
  LC50 OVCAR3 (ovarian cancer): 6 µM
[4]
  LC50 MCF-7 (breast cancer): 5 µM
[5]
  typical apoptotic DNA ladders: not observed
[6]
  LC50 LNCaP (prostate cancer): 5 µM
[7]
  HC10: 21 µM
